This note sets out measurements from a melting point compilation (Tetko et al.; mined from patent text by program, amines drawn as free bases though some values may be those of a salt).

For the compound `CC1Cc2ccc(Cl)cc2C(c2ccc([N+](=O)[O-])cc2)=NN1` (configuration not stated), the melting point was 132 to 135 °C.

`Cc1nc(Nc2ccc(F)cc2)nc(Cl)c1C` showed a melting point of 114 °C.

`CC1Nc2ccc(-c3csc(C#N)c3)cc2C2(CCCCC2)O1` (configuration not stated) came in with a melting point of 111 to 112 °C.

Regarding `CCOC(=O)c1c(-c2ccncc2)[nH]c(-c2ccccc2)c1C`, the melting point fell in the range of 179 to 181 °C.

Regarding `N#Cc1cc(N2CCCCC2)ccc1N`, the melting point was 87 to 88 °C.

In the case of `CC(N1CCN(c2nnn(Cc3ccc(C(C)(C)C)cc3)n2)CC1)C(O)(Cn1cncn1)c1ccc(F)cc1F` (configuration not stated), the melting point was in the range of 99 to 101 °C.

In turn, `O=CNC1=NN(c2cccc(Cl)n2)CC1` came in with a melting point of 190 to 192 °C.

`CCCCCC(=O)N1CCc2nc3ccccc3c(C)c2CC1` gave a melting point of 109 °C.

Consider `CCn1cc(C(=O)O)c(=O)c2cc(F)c(N3Cc4ccc(N)cc4C3)cc21`, for which the melting point is greater than 300 °C.

As for `COc1cc(OC)c(S(C)(=O)=O)cc1C(=O)NCC1CCCN1C1CCCC1` (configuration not stated), the melting point amounted to 198 °C.

Regarding `Cc1c(C(=O)c2cccc(C(F)(F)F)c2)oc2c(Br)cccc12`, the melting point was in the range of 97 to 98 °C.

`COc1nsnc1S(C)(=O)=O` came in with a melting point of 110 to 112 °C.

For the compound `Cc1cc(C)c(S(=O)(=O)Nc2onc(C)c2Br)c(C)c1`, the melting point lay in the range of 92 to 95 °C.

With `CCC(Cc1cc(C(C)(C)C)c(O)c(C(C)(C)C)c1)[N+](=O)[O-]` (configuration not stated), the melting point fell in the range of 55 to 60 °C.

`COc1ccc2[nH]c(C)c(C=O)c2c1`: the melting point lay within 190 to 191 °C.

In the case of `Cc1c([N+](=O)[O-])ccnc1CSc1nc2ccc(C(F)(F)F)cc2[nH]1`, the melting point was in the range of 192 to 193 °C.

In turn, `Cc1c(OCc2ccccc2)c(=O)ccn1CC(=O)NCCCCNCCCNC(=O)Cn1ccc(=O)c(OCc2ccccc2)c1C` displayed a melting point of 89 °C.

Turning to `COc1ccc(C2OCC(COC(C(F)(F)F)(C(F)(F)F)C(F)(F)F)(COC(C(F)(F)F)(C(F)(F)F)C(F)(F)F)CO2)cc1`, the melting point lay within 89 to 90 °C.

For `COC=C(C(=O)OC)c1ccccc1CON=C(C)c1nn(C)c2cc(OCC3CC3(Cl)Cl)c(F)cc12` (configuration not stated), the melting point lay in the range of 138 to 140 °C.

Turning to `CC(=O)Oc1c(Sc2ccccc2)sc2ccccc12`, the melting point was 88 to 90 °C.

On to `Cc1cc(SC2CC(=O)N(c3ccccc3)C2=O)cc(C(C)(C)C)c1N` (configuration not stated), for which the melting point is 126 to 128 °C.

Consider `CCOC(=O)C(Cc1ccc2ccccc2n1)(OC1CCCCO1)C(=O)OCC` (configuration not stated), for which the melting point was in the range of 75 to 78 °C.

Turning to `CCC(O)(c1ccccc1)c1cccc(N)c1` (configuration not stated), the melting point was 92 to 93 °C.

Turning to `O=c1[nH]cccc1-c1ccccc1`, the melting point fell in the range of 223 to 229 °C.

The compound `CCC(CNC(=O)c1cc(C#N)c(Cl)cc1OC)NC(C)C` (configuration not stated) had a melting point of 103 to 105 °C.

Compound `O=C(CN1C(=O)C2(COc3cc4c(cc32)CCO4)c2c(-c3cncnc3)cccc21)Nc1ccccc1F` (configuration not stated) yielded a melting point of 229 to 230 °C.

`COc1c([N+](=O)[O-])cc(C=O)c(Cl)c1OC(C)=O` came in with a melting point of 84 to 85 °C.

In turn, `OC(Cc1ccnc2ccccc12)C(Cl)(Cl)Cl` (configuration not stated) registered a melting point of 190 to 192 °C.

In turn, `Nc1nc2c(s1)CCN(C(=O)c1ccc(NC(=O)c3ccccc3-c3ccccc3)cc1)c1ccccc1-2` displayed a melting point greater than 250 °C.

As to `CCCCCn1c(C)c(C(=O)c2ccc(Br)c3ccccc23)c2cccc(OC)c21`, the melting point came out at 114 °C.

With `O=c1cc(-c2ccc(F)cc2)c2ccc(Sc3cc(F)cc(C(O)(c4nccs4)C(F)(F)F)c3)cc2o1` (configuration not stated), the melting point was in the range of 72 to 73 °C.

For `COC(=O)NN=Cc1nc(-c2cccc(C)c2)[nH]c1C`, the melting point lay within 162 to 164 °C.

The compound `O=C(CNc1cccc(F)c1)Nc1c(Cl)ccc2nc(N3CC[C@@H](O)C3)ccc12` had a melting point of 218 to 220 °C.

In the case of `N#Cc1cc(-c2cccs2)[nH]c1-c1cccs1`, the melting point fell in the range of 202 to 204 °C.

For `CC(C)N1CC(Oc2ccc(-c3cccc(N)n3)c3ccccc23)C1`, the melting point lay in the range of 120 to 135 °C.

`O=C(O)c1ccccc1SCCCCOc1ccc(C=Cc2ccncc2)cc1` registered a melting point of 229 to 231 °C.

On to `COC(=O)c1ccc2c(c1)c(Cc1ccc(C(=O)NS(=O)(=O)c3ccccc3C)cc1OC)cn2C`, for which the melting point lay in the range of 185 to 187 °C.

`N#CC1=C(n2cccc2)Oc2c(ccc3cc(C(=O)O)c(O)cc23)C1c1cccc([N+](=O)[O-])c1` (configuration not stated): the melting point was greater than 230 °C.

`COc1cc(CCCC2SC(=O)NC2=O)ccc1OCc1nc(-c2ccco2)oc1C` (configuration not stated): the melting point lay in the range of 109 to 110 °C.

`CN(Cc1cc2ccccc2n1C)C(=O)/C=C/c1ccc(N2C(=O)CCC2=O)nc1`: the melting point was in the range of 185 to 187 °C.

`N#Cc1cccc(CN2C(=O)C3(COc4cc5c(cc43)CCO5)c3ccccc32)c1` (configuration not stated) returned a melting point of 187 to 193 °C.

In turn, `CCOC(=O)/C=C/c1c(CC)cnc2c(NC(=O)c3c(Cl)cccc3Cl)cccc12` displayed a melting point of 115 to 118 °C.

Consider `CCON=C(CC)C1=C(OC(=O)c2ccccc2)CC(c2c(OC)cc(OC)cc2OC)CC1=O` (configuration not stated), for which the melting point worked out at 139 °C.

In turn, `CCOc1nc(C)nc(N2CCN(c3ccc(F)cc3)CC2)c1[N+](=O)[O-]` returned a melting point of 116 to 119 °C.

As to `COC(=O)c1ccc(Cl)c(Cn2nnn(C3CC3)c2=O)c1Cl`, the melting point lay within 99 to 100 °C.

`CC(C)Oc1ccc([N+](=O)[O-])cc1O` showed a melting point of 139 °C.

The compound `O=C(Cc1ccccc1)NC1CN(C(C(=O)OCc2ccccc2)c2ccccc2)C1=O` (configuration not stated) gave a melting point of 96 to 98 °C.

As for `CCOC(=O)c1cnc2c(c1NCCN(C)C)NC(=O)CN2`, the melting point was 183 to 185 °C.

`O=C(c1ccc(C2CCCCC2)cc1)N1Cc2cccn2Cc2ncccc21` returned a melting point of 150 to 152 °C.

In turn, `CC(C(=O)c1ccc(Cl)c(Cl)c1)C(O)C(=O)O` (configuration not stated) displayed a melting point of 103 to 104 °C.

`CC(C)c1ccc2c(c1)c(Sc1ccccc1)c(C(C)C(=O)O)n2Cc1ccc(Cl)cc1` (configuration not stated) showed a melting point of 181 to 182 °C.

The compound `CCOc1ccc2c(=O)cc(-c3ccccc3O)oc2c1` showed a melting point of 295 to 297 °C.

`CCOC(CNC(=C[N+](=O)[O-])SC)OCC` came in with a melting point of 73 to 73.5 °C.

On to `Cc1ncc(CNC(=O)c2sc(N3CCN(CC4CC4)C3=O)nc2C)s1`, for which the melting point was in the range of 165 to 167 °C.

In turn, `O=C(CCCC(Cc1c[nH]c2ccccc12)(NC(=O)OC1C2CC3CC(C2)CC1C3)C(=O)NCCc1ccccc1)OCc1ccccc1` (configuration not stated) yielded a melting point of 115 to 136 °C.

The compound `NC(=O)C(Nc1ccc(Cl)cc1)c1c(Cl)ccc(N)c1Cl` (configuration not stated) showed a melting point of 232 °C.

Compound `COc1ccc(Sc2sccc2C=O)cc1` gave a melting point of 58 to 60 °C.

In the case of `CN(C)Cc1cc(C(=O)c2cccs2)cc(C2CCCCC2)c1O`, the melting point was in the range of 105 to 106 °C.

`COC(=O)[C@@H]1COC(=S)N1C(=O)c1ccccc1` showed a melting point of 87.2 to 88 °C.

`Cc1ccc(-c2cn3cc(C(F)(F)F)ccc3n2)cc1` displayed a melting point of 187 to 188 °C.

Compound `O=c1c2c(Cc3ccccc3C(F)(F)F)n[nH]c2c2cccnc2n1-c1ccccc1` gave a melting point of 292 to 294 °C.

`O=C1C(=O)c2ccccc2C2=C1SCC1(CCN(Cc3ccc(-c4cn[nH]c4)cc3)CC1)O2` displayed a melting point of 190 to 192 °C.

Regarding `Nc1ccc(C(c2ccccc2F)n2ccnc2)cc1[N+](=O)[O-]` (configuration not stated), the melting point was found to be 176 °C.

With `CCCC(=O)c1cnc2c(OC)csc2c1Cl`, the melting point lay within 76 to 78 °C.

`O=[N+]([O-])c1oc2c(CO)cccc2c1-c1ccccc1` had a melting point of 128 to 130 °C.

The compound `OC1CCOc2ccc(C=Cc3nc4cc(F)ccc4s3)cc21` (configuration not stated) came in with a melting point of 184 to 186 °C.

The compound `OC1(C(c2ccccc2F)n2cccc2)CCN(Cc2ccccc2)C1` (configuration not stated) registered a melting point of 87 to 89 °C.

With `CC(C)(C)C1=CC(=Nc2cccc(C(=O)O)c2)C=C(C(C)(C)C)C1=O`, the melting point lay within 230 to 231 °C.

For `COC(=O)c1ccc(C2OC23Cc2ccccc2C3=O)cc1` (configuration not stated), the melting point is 160 to 163 °C.

As to `Cc1cc(SCc2ccc(-c3ccc(C(F)(F)F)cn3)cc2)c2c(c1OCC(=O)O)CCO2`, the melting point was 94 to 95 °C.

On to `NC(=O)c1ccccc1N1CCOCC1`, for which the melting point was 112 to 119 °C.

With `Cc1c(C(=O)O)cnn1-c1nc(-c2cccc(C(F)(F)F)c2)cs1`, the melting point was 227 to 228 °C.

With `COC(=O)c1c(I)ccc2c(=O)c3ccccc3[nH]c12`, the melting point was 202 to 204 °C.

On to `O=S(c1ccccc1)c1ccc2c(c1)C(O)C(Br)CCO2` (configuration not stated), for which the melting point was 147 to 149 °C.

`CS(=O)(=O)Nc1ccc([N+](=O)[O-])cc1C(=O)C1CCCCC1`: the melting point was in the range of 178 to 179 °C.

Take `C#CCOc1cc(C(=O)O)cc(S(N)(=O)=O)c1-c1ccccc1`: the melting point fell in the range of 154 to 155 °C.

As to `CCOC(=O)CC[C@H](NC(=O)c1ccc(C(COC2CCCCO2)CC2CNc3nc(NC(=O)C(C)(C)C)nc(O)c3C2)cc1)C(=O)OCC` (some centres not stated), the melting point was in the range of 183 to 186 °C.

Compound `CSC(SC)=C(C#N)C(=O)c1cc(C)ccc1C` registered a melting point of 74.5 to 75.5 °C.

In turn, `C#CC1CC2(CC#CC)C(O)CCC2C2C=CC3=CC(=O)CCC3C12` (configuration not stated) had a melting point of 195 to 198 °C.

Consider `COc1cc2nc(N3CCc4ccc(NC(C)=O)cc4C3)nc(N)c2cc1OC`, for which the melting point fell in the range of 243 to 244 °C.

Take `O=C(N[C@H](Cc1ccc(C(F)(F)F)cc1)[C@@H](O)c1ccc(F)cc1)c1ccc2c(c1)OCO2` (racemic): the melting point lay within 180 to 181 °C.

On to `O=C1Cc2cccc(Oc3ccccc3F)c2O1`, for which the melting point lay within 82 to 84 °C.

The compound `O=C1Nc2ccc(I)cc2C1=NNC(=O)c1ccc(Oc2ccc(CN3CCOCC3)cc2)cc1` registered a melting point of 252 °C.

`Cc1ncc(-c2nc3cc4c(cc3[nH]2)NC(=O)C4(C)C)cn1` came in with a melting point greater than 350 °C.

For `CON1C(C)(C)CC(OC(=O)C2=C(c3ccccc3)C(c3ccccc3)OC2=O)CC1(C)C` (configuration not stated), the melting point fell in the range of 143 to 146 °C.

In the case of `CCOC(=O)C1=C(COCc2ccc(CN(C)C)s2)NC(C)=C(C(=O)OC)C1c1ccccc1Cl` (configuration not stated), the melting point lay within 81 to 83 °C.

In turn, `CS(=O)(=O)Nc1ccc(C(=O)O)c(Cl)c1` gave a melting point of 256 to 258 °C.
